Source: patent publication US6967196B1, “Sulfonamide compounds and uses thereof” (Bristol-Myers Squibb Company, priority 1999, dated 2005)
Where a name gives a salt, the structure may show the parent alone. Read-outs that look alike come from different tables or passages of the source. One block for each molecule: values may come before it.

System: amyloid β production in transfected H4 (human neuroglioma) cells stably expressing APP constructs
Experiment: In vitro cell-based assay of inhibitors of amyloid β production (ELISA)
Procedure, shortened: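 Plate wt/variant APP cells; ≥6 h later swap to medium + compound (10-100 μM screen); incubate ~16 h; sample medium; Aβ ELISA with C-terminal capture / N-terminal detection Abs; quantify vs Aβ standard curve.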

[1] = Homo sapiens, 16 h, transfected H4 cells stably expressing APP, approximately 16 hours incubation, amyloid β in medium by ELISA, read-out: ACTIVITY (IC50, inhibition of amyloid β production)
[2] = transfected H4 cells stably expressing APP, approximately 16 hours incubation, amyloid β in medium by ELISA, read-out: ACTIVITY (IC50, inhibition of amyloid β production)
[3] = transfected H4 cells stably expressing APP, approx. 16 h incubation, amyloid β in medium by ELISA, read-out: ACTIVITY (IC50, inhibition of amyloid β production)
[4] = transfected H4 cells stably expressing APP constructs, approximately 16 hours incubation, amyloid β in medium by ELISA, read-out: ACTIVITY (IC50, inhibition of amyloid β production)

Molecule: (E)-N-(2,5-dichlorophenyl)-2-phenyl-N-{2-[3-(1-piperidinyl)propoxy]benzyl}ethanesulfonamide hydrochloride [Example 994]
IC50 [2]: > 500 nM

Molecule: N-{3-[2-(1-{[(4-chlorophenyl)sulfonyl]-2,5-difluoroanilino}ethyl)phenoxy]propyl}-4-fluorobenzamide [Example 679]
IC50 [3]: 100 to 500 nM

Molecule: O=S(=O)(c1ccc(Cl)cc1)N(Cc1cc(F)ccc1OCCCN1CCCCC1)c1cc(F)ccc1F [Example 231, 4-Chloro-N-(2,5-difluorophenyl)-N-{5-fluoro-2-[3-(1-piperidinyl)propoxy]benzyl}benzenesulfonamide Hydrochloride]
IC50 (read-out: ACTIVITY (inhibitory concentration IC50, inhibition of amyloid β production)): 25 to 50 nM

Molecule: COC(=O)[C@@H](NC(=O)CC[C@@H](C)N(c1cc(Cl)ccc1F)S(=O)(=O)c1ccc(Cl)cc1)C(C)C [Example 537, (R)-4-Chloro-N-(5-chloro-2-fluorophenyl)-N-[4-[N-(S)-[1-(methoxycarbonyl)-2-methylpropyl]amino]1-methyl-4-oxobutyl]benzenesulfonamide]
IC50 (transfected H4 cells stably expressing APP, approximately 16 hours incubation, amyloid β in medium by ELISA, Table B, read-out: ACTIVITY (IC50, inhibition of amyloid β production)): 100 to 500 nM

Molecule: C[C@@H]1CCC[C@H](C)N1CCCOc1ccccc1CN(c1ccccc1)S(=O)(=O)c1ccc(Cl)cc1 [Example 812, 4-chloro-N-(2-{3-(2R, 6S)-2,6-dimethylpiperidinyl]propoxy}benzyl)-N-phenylbenzenesulfonamide hydrochloride]
IC50 [2]: 100 to 500 nM

Molecule: CCS(=O)(=O)CC[C@@H](C)N(c1cc(Cl)ccc1Cl)S(=O)(=O)c1ccc(Cl)cc1 [Example 1180, 4-chloro-N-[2,5-dichlorophenyl]-N-[1(R)-methyl-(3-ethylsulfonyl)propyl]benzenesulfonamide]
IC50 [4]: ≤ 25 nM

Molecule: 3-[2-((1R)-1-{[(4-chlorophenyl)sulfonyl]-2,5-difluoroanilino}ethyl)phenyl]propyl benzyl(methyl)carbamate [Example 763]
IC50 [3]: 100 to 500 nM

Molecule: CC(C)Oc1c(NCCC[C@@H](C)N(c2cc(Cl)ccc2Cl)S(=O)(=O)c2ccc(Cl)cc2)c(=O)c1=O [Example 1128, 4-chloro-N-(2,5-dichlorophenyl)-N-[4-(2-isopropoxy-3,4-dioxo-1-cyclobutenyl)amine-1(R)-methylbutyl]benzenesulfonamide]
IC50 [4]: 50 to 100 nM

Further lines, results first:

IC50 [1]: > 500 nM
Molecule: C[C@H](c1ccccc1OCCCn1ccnc1)N(c1cc(F)ccc1F)S(=O)(=O)c1ccc(Cl)cc1 [Example 908, 4-chloro-N-(2,5-difluorophenyl)-N-((1R)-1-{2-[3-(1H-imidazol-1-yl)propoxy]phenyl}ethyl)benzenesulfonamide hydrochloride]

IC50 [1]: > 500 nM
Molecule: O=S(=O)(c1ccc(Cl)cc1)N(Cc1ccccc1CCCCCN1CCCCC1)c1ccccc1 [Example 978, 4-chloro-N-phenyl-N-{2-[5-(1-piperidinyl)pentyl]benzyl}benzenesulfonamide hydrochloride]

IC50 [1]: > 500 nM
Molecule: C[C@H](c1ccccc1CCO)N(c1cc(F)ccc1F)S(=O)(=O)c1ccc(Cl)cc1 [Example 1055, 4-chloro-N-(2,5-difluorophenyl)-N-{(1R)-1-[2-(2-hydroxyethyl)phenyl]ethyl}benzenesulfonamide]

IC50 (Homo sapiens, 16 h, transfected H4 cells stably expressing APP, approx. 16 h incubation, amyloid β in medium by ELISA, read-out: ACTIVITY (IC50, inhibition of amyloid β production)): 100 to 500 nM
Molecule: O=S(=O)(c1ccc(Cl)cc1)N(Cc1ccccc1OCCC1CCCCN1Cc1cc(F)cc(F)c1)c1cc(F)ccc1F (centres unmarked) [Example 746, 4-chloro-N-(2-{2-[1-(3,5-difluorobenzyl)-2-piperidinyl]ethoxy}benzyl)-N-(2,5-difluorophenyl)benzenesulfonamide]

IC50 (Table B, transfected H4 cells stably expressing APP, approximately 16 hours incubation, amyloid β in medium by ELISA, read-out: ACTIVITY (inhibitory concentration IC50, inhibition of amyloid β production)): ≤ 25 nM
Molecule: C[C@H](CCSCC(=O)O)N(c1cc(Cl)ccc1Cl)S(=O)(=O)c1ccc(Cl)cc1 [Example 180, (6R)-6-[(2,5-dichlorophenyl)[(4-chlorophenyl)sulfonyl]amino]-3-thioheptanoic Acid]

IC50 [1]: > 500 nM
Molecule: CC(C)(C)OC(=O)n1c(-c2ccccc2OCCCN2CCCCC2)cc2ccccc21 [Example 1021, tert-butyl 2-{2-[3-(1-piperidinyl)propoxy]phenyl}-1H-indole-1-carboxylate trifluoroacetate]
